Assay results as given in paper PMC11801377, “A uniquely efficacious type of CFTR corrector with complementary mode of action” (Science Advances, 2024).

What was measured:
Assay type in all cases: cell-based
G551D-CFTR = target: T1, G551D-CFTR (Homo sapiens, UniProt P13569, G551D); assay: YFP quenching copotentiation assay in HEK-G551D-CFTR cells (acute treatment); conditions: HEK293 cells, 10 min incubation
T1 construct: expressed in transfected cells; host or cells: T-REx HEK293, also transduced with halide-sensitive YFP
T1 sequence (P13569 whole entry G551D): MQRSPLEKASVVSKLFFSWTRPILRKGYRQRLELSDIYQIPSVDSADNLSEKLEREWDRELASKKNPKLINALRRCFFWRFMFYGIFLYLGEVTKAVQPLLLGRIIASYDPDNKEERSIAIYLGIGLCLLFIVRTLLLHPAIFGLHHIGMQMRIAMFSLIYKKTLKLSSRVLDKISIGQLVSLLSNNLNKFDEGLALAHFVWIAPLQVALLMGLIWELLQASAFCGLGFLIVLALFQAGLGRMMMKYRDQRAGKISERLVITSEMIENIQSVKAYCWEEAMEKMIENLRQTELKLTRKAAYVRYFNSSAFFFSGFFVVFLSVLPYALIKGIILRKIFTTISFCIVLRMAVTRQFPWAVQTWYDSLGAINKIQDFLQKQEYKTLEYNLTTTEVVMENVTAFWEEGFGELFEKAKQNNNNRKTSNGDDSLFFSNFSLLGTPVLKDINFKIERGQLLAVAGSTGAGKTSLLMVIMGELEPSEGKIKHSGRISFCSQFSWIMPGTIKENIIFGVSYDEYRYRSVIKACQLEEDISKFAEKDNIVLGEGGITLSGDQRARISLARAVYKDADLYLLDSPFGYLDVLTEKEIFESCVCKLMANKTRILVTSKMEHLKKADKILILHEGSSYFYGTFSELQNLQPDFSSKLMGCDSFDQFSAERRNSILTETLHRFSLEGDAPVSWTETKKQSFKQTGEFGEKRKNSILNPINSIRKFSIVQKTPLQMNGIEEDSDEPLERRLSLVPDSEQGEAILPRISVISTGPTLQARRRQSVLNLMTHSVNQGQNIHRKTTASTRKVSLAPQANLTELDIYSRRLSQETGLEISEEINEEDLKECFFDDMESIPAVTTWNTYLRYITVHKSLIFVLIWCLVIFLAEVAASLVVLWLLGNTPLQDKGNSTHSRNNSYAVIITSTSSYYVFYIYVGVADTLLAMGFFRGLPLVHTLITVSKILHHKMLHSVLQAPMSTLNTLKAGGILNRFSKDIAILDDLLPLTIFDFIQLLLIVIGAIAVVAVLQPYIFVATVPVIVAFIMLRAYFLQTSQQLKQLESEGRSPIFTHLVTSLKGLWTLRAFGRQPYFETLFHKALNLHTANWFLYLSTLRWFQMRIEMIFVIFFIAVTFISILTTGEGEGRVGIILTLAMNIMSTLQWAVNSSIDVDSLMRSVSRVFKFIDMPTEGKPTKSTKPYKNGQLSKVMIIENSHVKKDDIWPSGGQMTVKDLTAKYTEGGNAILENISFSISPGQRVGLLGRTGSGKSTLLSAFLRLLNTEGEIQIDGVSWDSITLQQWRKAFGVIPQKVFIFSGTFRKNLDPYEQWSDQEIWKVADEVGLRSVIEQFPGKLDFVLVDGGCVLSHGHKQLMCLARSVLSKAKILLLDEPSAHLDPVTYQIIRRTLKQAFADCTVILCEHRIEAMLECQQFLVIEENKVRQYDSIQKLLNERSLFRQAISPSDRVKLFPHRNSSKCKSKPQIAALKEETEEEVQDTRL
Description: (§1) The human CFTR expressing HEK cell pools with the mutations described below were generated by integrase-mediated homologous recombination of the CFTR sequence into the T-REx HEK293 background (Thermo Fisher Scientific). This expression system allows the tetracycline-inducible expression of genes of interest from one defined insertion site. Parental T-REx-HEK293 cells were cultivated in growth medium: Dulbecco’s modified Eagle’s medium + GlutaMAX-I (#31966, Life Technologies), 10% dialyzed FBS (Gibco, #26400), penicillin (100 U/ml), streptomycin (100 μg/ml), hygromycin B (0.1 mg/ml; Life Technologies), blasticidin (5 μg/ml; Invitrogen, #R210-01), and 0.1 mM nonessential amino acid solution (Invitrogen, #11140-035). Recombinant T-REx-HEK-CFTR cells were generated by lipofectamine transfection (Life Technologies) of plasmids containing mutated versions of CFTR (RefSeq NM_000492) and then cultivated in selection medium [growth medium containing Geneticin (1 mg/ml) (Invitrogen, #10131-027) instead of hygromycin]. The plasmid constructs were synthetized by GENEART (Thermo Fisher Scientific) and designed with the WT CFTR intron 5 to 6 (880 nucleotides) to prevent leaky expression issues during the cloning process in bacteria. […]

WT-CFTR = target: T2, WT-CFTR (Homo sapiens, UniProt P13569); assay: YFP quenching assay in CFBE-WT-CFTR-YFP cells
T2 construct: host or cells: CFBE41o-
T2 sequence (P13569 whole entry): as the sequence (P13569 whole entry G551D) above, with D551G counted along it

R347P CFTR = target: T3, R347P CFTR (Homo sapiens, UniProt P13569, R347P); assay: CFTR correction (immunoblotting), HEK-TREx, R347P; conditions: 48 hours, IDOR-3 2 μM, IDOR-4 0.4 μM, TEZ 2 μM + ELX 0.4 μM
T3 construct: expressed in transfected cells; host or cells: T-REx HEK293
T3 sequence (P13569 whole entry R347P): as the sequence (P13569 whole entry G551D) above, with R347P, D551G counted along it
Description: as §1

M1101K CFTR = target: T4, M1101K CFTR (Homo sapiens, UniProt P13569, M1101K); assay: CFTR correction (immunoblotting), HEK-TREx, M1101K; conditions: 48 hours, IDOR-3 2 μM, IDOR-4 0.4 μM, TEZ 2 μM + ELX 0.4 μM
T4 construct: expressed in transfected cells; host or cells: T-REx HEK293
T4 sequence (P13569 whole entry M1101K): as the sequence (P13569 whole entry G551D) above, with D551G, M1101K counted along it
Description: as §1

G85E CFTR = target: T5, G85E CFTR (Homo sapiens, UniProt P13569, G85E); assay: CFTR correction (immunoblotting), HEK-TREx, G85E; conditions: 48 hours, IDOR-3 2 μM, IDOR-4 0.4 μM, TEZ 2 μM + ELX 0.4 μM
T5 construct: expressed in transfected cells; host or cells: T-REx HEK293
T5 sequence (P13569 whole entry G85E): as the sequence (P13569 whole entry G551D) above, with G85E, D551G counted along it
Description: as §1

R560T CFTR = target: T6, R560T CFTR (Homo sapiens, UniProt P13569, R560T); assay: CFTR correction (immunoblotting), HEK-TREx, R560T; conditions: 48 hours, IDOR-3 2 μM, IDOR-4 0.4 μM, TEZ 2 μM + ELX 0.4 μM
T6 construct: expressed in transfected cells; host or cells: T-REx HEK293
T6 sequence (P13569 whole entry R560T): as the sequence (P13569 whole entry G551D) above, with D551G, R560T counted along it
Description: as §1

V520F CFTR = target: T7, V520F CFTR (Homo sapiens, UniProt P13569, V520F); assay: CFTR correction (immunoblotting), HEK-TREx, V520F; conditions: 48 hours, IDOR-3 2 μM, IDOR-4 0.4 μM, TEZ 2 μM + ELX 0.4 μM
T7 construct: expressed in transfected cells; host or cells: T-REx HEK293
T7 sequence (P13569 whole entry V520F): as the sequence (P13569 whole entry G551D) above, with V520F, D551G counted along it
Description: as §1

N1303K CFTR = target: T8, N1303K CFTR (Homo sapiens, UniProt P13569, N1303K); assay: CFTR correction (immunoblotting), HEK-TREx, N1303K; conditions: 48 hours, IDOR-3 2 μM, IDOR-4 0.4 μM, TEZ 2 μM + ELX 0.4 μM
T8 construct: expressed in transfected cells; host or cells: T-REx HEK293
T8 sequence (P13569 whole entry N1303K): as the sequence (P13569 whole entry G551D) above, with D551G, N1303K counted along it
Description: as §1

F508del-CFTR = F508del-CFTR (Homo sapiens, UniProt P13569, DEL508-508); assay: CFTR immunoblotting in HEK-TREx cells expressing F508del-CFTR; design: expressed in transfected cells; host or cells: T-REx HEK293; conditions: 48 hours, IDOR-3 2 μM, IDOR-4 0.4 μM
Sequence of F508del-CFTR (P13569 with tags, fused parts or gaps DEL508-508): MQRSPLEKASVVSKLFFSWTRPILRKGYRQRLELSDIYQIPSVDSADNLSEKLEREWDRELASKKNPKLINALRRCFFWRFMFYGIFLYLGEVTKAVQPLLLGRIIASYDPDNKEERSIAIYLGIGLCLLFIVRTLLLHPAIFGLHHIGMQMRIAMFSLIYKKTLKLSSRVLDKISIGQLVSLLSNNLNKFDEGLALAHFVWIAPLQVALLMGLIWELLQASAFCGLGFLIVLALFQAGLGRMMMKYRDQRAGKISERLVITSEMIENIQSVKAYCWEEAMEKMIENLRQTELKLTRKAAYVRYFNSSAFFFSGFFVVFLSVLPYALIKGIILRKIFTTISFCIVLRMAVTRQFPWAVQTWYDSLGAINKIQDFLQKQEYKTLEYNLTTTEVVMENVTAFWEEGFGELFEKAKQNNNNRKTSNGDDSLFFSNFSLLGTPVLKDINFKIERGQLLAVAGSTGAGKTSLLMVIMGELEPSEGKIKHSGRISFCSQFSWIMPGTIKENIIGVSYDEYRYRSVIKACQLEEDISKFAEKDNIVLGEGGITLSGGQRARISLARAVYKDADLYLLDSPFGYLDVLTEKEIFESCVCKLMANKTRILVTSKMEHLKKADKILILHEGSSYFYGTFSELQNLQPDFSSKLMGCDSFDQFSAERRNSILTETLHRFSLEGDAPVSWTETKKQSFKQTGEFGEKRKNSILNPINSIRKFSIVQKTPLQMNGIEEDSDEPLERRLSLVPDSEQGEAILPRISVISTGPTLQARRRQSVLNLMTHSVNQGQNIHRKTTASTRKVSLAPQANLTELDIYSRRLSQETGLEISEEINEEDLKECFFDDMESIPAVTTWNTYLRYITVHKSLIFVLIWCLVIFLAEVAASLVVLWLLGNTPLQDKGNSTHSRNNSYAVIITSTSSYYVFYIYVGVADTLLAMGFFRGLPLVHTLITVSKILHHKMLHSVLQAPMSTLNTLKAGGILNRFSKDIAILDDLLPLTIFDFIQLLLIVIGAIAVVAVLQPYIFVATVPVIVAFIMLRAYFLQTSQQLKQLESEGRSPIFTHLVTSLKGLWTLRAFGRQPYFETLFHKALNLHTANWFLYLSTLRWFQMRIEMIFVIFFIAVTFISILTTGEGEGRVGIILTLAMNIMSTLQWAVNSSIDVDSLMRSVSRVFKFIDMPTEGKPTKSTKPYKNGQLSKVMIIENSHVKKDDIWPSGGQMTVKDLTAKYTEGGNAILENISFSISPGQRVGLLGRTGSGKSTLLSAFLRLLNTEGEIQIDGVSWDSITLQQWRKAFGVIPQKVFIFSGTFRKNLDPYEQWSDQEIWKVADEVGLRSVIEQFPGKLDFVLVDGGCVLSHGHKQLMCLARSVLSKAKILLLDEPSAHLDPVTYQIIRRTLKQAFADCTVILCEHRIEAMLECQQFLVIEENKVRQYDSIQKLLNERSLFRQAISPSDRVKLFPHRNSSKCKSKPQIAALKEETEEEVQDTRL
Description: as §1

| acute effect on IVA activity at G551D-CFTR (G551D-CFTR) | increase in WT-CFTR function (WT-CFTR) | correction of R347P (R347P CFTR) | correction of M1101K (M1101K CFTR) | correction of G85E (G85E CFTR) | correction of R560T (R560T CFTR) | correction of V520F (V520F CFTR) | correction of N1303K (N1303K CFTR) | increase in C-band expression (F508del-CFTR) [fold] | Structure (SMILES) |
| --- | --- | --- | --- | --- | --- | --- | --- | --- | --- |
| copotentiation of IVA activity |  |  |  |  |  |  |  |  | Cc1nn(C)cc1S(=O)(=O)NC(=O)c1ccc(-n2ccc(OCC(C)(C)C(F)(F)F)n2)nc1N1C[C@@H](C)CC1(C)C [ELX, elexacaftor] |
| copotentiation of IVA activity | ~ 2 fold | highly effective | highly effective | highly effective | highly effective | highly effective | only minor activity | 9 | COc1cc(CCNC(=O)C2CC(=O)N(C)C(CC(C)C)C(=O)N3CCCCC3C(=O)NC(Cc3ccccc3)COc3ccc4ncc(F)cc4c3C(=O)N2)on1 (stereo not shown) [IDOR-3] |
